# Results reported in patent US9677063B2, “Use of a cysteine protease of plasmodium vivax” (SAMSUNG ELECTRONICS CO., LTD., priority 2009, dated 2017).
# Square brackets hold non-standard residues; d marks the D form. Peptide text beside a SMILES is read from it. * marks the point of attachment. Sta = CC(C)C[C@H](N)[C@@H](O)CC(=O)O; AMC = Cc1cc(=O)oc2cc(N*)ccc12; Isovaleryl = CC(C)CC(=O)*; Cbz = O=C(OCc1ccccc1)*
# Assays:
# [1] = tested on: P. vivax plasmepsin 4 (PvPM4); assay: Autocatalytic processing of recombinant PvPM4 (SDS-PAGE); assay type: biochemical, Plasmodium vivax; settings: pepstatin A 10 μM, 3 h at 37° C.
# Experimental: The reactants were analyzed by 12% SDS-PAGE.
# [2] = tested on: rVX-4; settings: E-64 1 μM, in presence of pepstatin A, pH 5.0-7.0, rVX-4 50 nM, 3 h at 37° C.
# Experimental: Recombinant PvPMs expressed in E. coli cells were purified by Ni-NTA chromatography (Qiagen) and refolded as described above. rVX-4 (50 nM) was incubated with PvPMs (20 μg each) in 100 mM sodium acetate (pH 5.0-5.5), 100 mM sodium phosphate (pH 6.0-6.5), or 100 mM Tris-HCl (pH 7.0-7.5) supplemented with 10 mM DTT for 3 h. The experiments were also performed in the presence of E-64 (1 μM) and/or pepstatin A (10 μM, Sigma-Aldrich).
# The inventors examined possible roles for VX-4 during maturation of recombinant PvPM4 (rPvPM4), which was expressed in E. coli as above, and the results are shown in FIG. 5(A). […] Recombinant PvPM 4 (20 μg) was incubated with rVX-4 (50 nM) supplemented with 10 mM DTT at different pH values with or without pepstatin A (PepA, 10 μM) or E-64 (1 μM) for 3 h at 37° C. The reactants were analyzed by 12% SDS-PAGE.
# [3] = tested on: rVX-4; settings: rVX-4 1 μM, pH 5.5, 6.5, 7.5, 30 min room temperature, substrate Z-LR-MCA
# Experimental: The optimal pH was assessed in 100 mM sodium acetate (pH 4.5-5.5), 100 mM sodium phosphate (pH 6.0-6.5) and 100 mM Tris-HCl (pH 7.0-8.5). The enzymes (50 nM) were added to each buffer supplemented with 10 mM DTT and 5 μM Z-L-phenylalanyl-L-arginine 4-methyl-coumaryl-7-amide (Z-FR-MCA), Z-leucyl-L-arginine-MCA (Z-LR-MCA), or Z-L-arginyl-L-arginine 4-methyl-coumaryl-7-amide (Z-RR-MCA) (Peptide International). The appropriate buffers were separately employed as controls at each pH. Enzyme activity was measured as described above. The effects of reducing agents were examined under various concentrations of GSH, and pH stability was examined at pH 5.0 and 8.0 by incubating rVX-4 at 37° C. in the appropriate buffer.
# Residual activities (%) were determined using Z-LR-MCA as a substrate.
# [4] = tested on: rVX-4; settings: fully processed 28 kDa rVX-4
# Experimental: The purified rVX-4 was refolded and activated, and aliquots collected every 30 min were analyzed by 12% SDS-PAGE with Coomassie staining (left). The proteolytic activity of fully processed rVX-4 was analyzed by a gelatin gel-zymogram (right).
# For activity gel electrophoresis, the obtained refolded rVX-4 was mixed with SDS-PAGE sample buffer lacking 2-mercaptoethanol and subjected to 12% SDS-PAGE co-polymerized with 0.1% gelatin. The gel was washed with 2% Triton X-100 (30 min), incubated overnight with 100 mM sodium acetate (pH 5.5) containing 10 mM DTT at 37° C. and stained with Coomassie Blue.
# [5] = tested on: VX-4; assay: Substrate hydrolysis kinetics for vivapains (peptide-MCA substrates); assay type: biochemical, Plasmodium vivax
# Experimental: (§1) Cysteine protease activity was ascertained by the hydrolysis of benzyloxycarbonyl-L-leucyl-L-arginine 4-methyl-coumaryl-7-amide (Z-LR-MCA) (Peptide International, Louisville, Ky.). Enzyme (xVX, 30 μl; 200 nM) was added to 100 mM sodium acetate (220 μl, pH 5.5) containing 5 μM Z-LR-MCA and 10 mM DTT. The release of fluorescence was assessed at excitation and emission wavelengths of 355 nm and 460 nm with a SpectraMAX Gemini fluorometer (Molecular Devices, Sunnyvale, Calif.).
# (§2) The release of MCA was monitored over 10 min at room temperature as described above. Activities were compared as fluorescence over time. The kinetic constants Km and Vmax were determined using GraphPad software.
# [6] = tested on: VX-4; assay: Determination of pH optimum of enzyme activity against peptide substrates; assay type: biochemical, Plasmodium vivax; settings: 5 μM substrate, 10 mM DTT, 37° C., pH 4.5-8.5
# Experimental: Enzyme activity was measured as described above.
# FIG. 3(C) relates to determination of pH optimum. […] Activity was measured at 37° C. each against Z-FR-MCA (▪), Z-LR-MCA (∘), and Z-RR-MCA (●). Maximal activity was presented as 100%. As shown in FIG. 3(C), the enzymatic activity was highest at pH 5.5. The pH-optimum was substantially different with a substrate containing a basic AA at P2 (Z-RR-MCA) with maximal activity at pH 6.5, and activity seen above pH 8.
# [7] = tested on: VX-2; assay: Substrate hydrolysis kinetics for vivapains (peptide-MCA substrates); assay type: biochemical, Plasmodium vivax; settings: pH 5.5, 6.5, 7.5
# Experimental: as §1, §2
# [8] = tested on: VX-3; assay: as above; assay type: biochemical, Plasmodium vivax; settings: pH 5.5, 6.5, 7.5
# Experimental: as §1, with “Enzyme (xVX, 30 μl; 200 nM) was added to 100 mM sodium acetate (220 μl, pH 5.5) containing 5 μM Z-LR-MCA and 10 mM DTT.” left out
# as §2
# [9] = tested on: VX-4 mutants containing E180A; assay: Activity of mutant VX-4s against peptide substrates; assay type: biochemical, Plasmodium vivax; settings: 100 mM Tris-HCl pH 7.5, 10 mM DTT, 37° C.
# Experimental: Site-directed mutagenesis was performed using a QuickChange II Site-Directed Mutagenesis Kit (Stratagene, Calif.). A pair of complementary primers with 39 bases was designed and a mutation to replace Ala90 to Ile (A90I), Gly154 to Ser (G154S) or Glu180 to Ala (E180A) was placed in the middle of the primers, as follows: […]
# Parental DNA inserted in pQE-30 (Qiagen, Calif.) as prepared in Example 2 was amplified using Pfu Ultra HF DNA polymerase with these primers for 16 cycles in a DNA thermal cycler (Perkin-Elmer). After digestion of the parental DNA with Dpn I, the amplified DNA with nucleotide substitution was incorporated and transformed into E. coli XL1-Blue (Stratagene). The mutations were verified by DNA sequencing. Double and triple point mutagenesis of A90I, G154S, and E180A were also done as described above. Each mutant plasmid was transformed into competent E. coli M15 (pREP4) cells (Qiagen). Each recombinant protein was individually expressed, purified and refolded as described above.
# In assays against peptide substrates, all of the mutants harboring A901 and G154S by single or multiple substitutions maintained the pH-dependent substrate specificity of wild-type VX-4. Conversely, those containing E180A lost activity against Z-RR-MCA at pH 7.5 (FIG. 4(C)). […]
# [10] = rVX-4, pH 7.5 compared with pH 5.5
structure (smiles),measurement,setting,value
CC(C)CC(=O)N[C@H](C(=O)N[C@H](C(=O)N[C@@H](CC(C)C)[C@@H](O)CC(=O)N[C@@H](C)C(=O)N[C@@H](CC(C)C)[C@@H](O)CC(=O)O)C(C)C)C(C)C [pepstatin A] (Isovaleryl-VV[Sta]A[Sta]-OH),effect on autocatalytic processing of rPvPM4,[1],completely blocked
"CC(C)C[C@H](NC(=O)[C@H]1O[C@@H]1C(=O)O)C(=O)NCCCCN=C(N)N (relative stereo) [E-64, trans-epoxysuccinyl-L-leuciloamido-(4-guanidino) butane]",effect on rVX-4 cleavage of rPvPM4,[2],specifically and significantly inhibited
same,E-64 concentration needed to inhibit rVX-4 depending on pH,[3],increased concentrations of E-64 to inhibit rVX-4 at higher pH
same,inhibition of protease activity in gelatin-gel electrophoresis,[4],completely inhibited
"Cc1cc(=O)oc2cc(NC(=O)[C@H](CCCNC(=N)N)NC(=O)[C@H](CC(C)C)NC(=O)OCc3ccccc3)ccc12 [Z-LR-MCA, benzyloxycarbonyl-L-leucyl-L-arginine 4-methyl-coumaryl-7-amide]",decrease of kcat/Km at pH 7.5,[5]; [10],5.6 fold
same,pH of maximal enzyme activity,[6],5.5
"Cc1cc(=O)oc2cc(NC(=O)[C@H](CCCNC(=N)N)NC(=O)[C@H](Cc3ccccc3)NC(=O)OCc3ccccc3)ccc12 [Z-FR-MCA, benzyloxycarbonyl-L-phenylalanyl-L-arginine 4-methyl-coumaryl-7-amide] (Cbz-Phe-Arg-{AMC})",hydrolysis by rVX-2,[7],could not hydrolyze
same,hydrolysis by rVX-4,[5]; pH 7.5,not hydrolyzed
same,pH of maximal enzyme activity,[6],5.5
same,hydrolysis by rVX-3,[8],could not hydrolyze
"Cc1cc(=O)oc2cc(NC(=O)[C@H](CCCNC(=N)N)NC(=O)[C@H](CCCNC(=N)N)NC(=O)OCc3ccccc3)ccc12 [Z-RR-MCA, benzyloxycarbonyl-L-arginyl-L-arginine 4-methyl-coumaryl-7-amide] (Cbz-Arg-Arg-{AMC})",hydrolysis by rVX-2,[7],could not hydrolyze
same,increase of kcat/Km at pH 7.5,[5]; [10],2.6 fold
same,pH of maximal enzyme activity,[6],6.5
same,hydrolysis by rVX-3,[8],could not hydrolyze
same,activity of E180A-containing VX-4 mutants against substrate,[9],lost activity
